Data taken from patent US7566699B2, “Fused heterocyclic derivative, medicinal composition containing the same, and medicinal use thereof” (Kissei Pharmaceutical Co., Ltd., priority 2003, dated 2009).

Experiments:
human SGLT2 = molecular target: T1, human SGLT2 (Homo sapiens, UniProt P31639); assay: Assay for inhibitory effects on human SGLT2 activity (uptake of methyl-α-D-glucopyranoside); type: cell-based; settings: inhibition of uptake of 14C-labeled methyl-α-D-glucopyranoside (1 mM) in CS2-5E cells (CHO-K1) stably expressing human SGLT2, 37° C., 1 hour
T1 construct: expressed in transfected cells
T1 sequence (P31639 1-672): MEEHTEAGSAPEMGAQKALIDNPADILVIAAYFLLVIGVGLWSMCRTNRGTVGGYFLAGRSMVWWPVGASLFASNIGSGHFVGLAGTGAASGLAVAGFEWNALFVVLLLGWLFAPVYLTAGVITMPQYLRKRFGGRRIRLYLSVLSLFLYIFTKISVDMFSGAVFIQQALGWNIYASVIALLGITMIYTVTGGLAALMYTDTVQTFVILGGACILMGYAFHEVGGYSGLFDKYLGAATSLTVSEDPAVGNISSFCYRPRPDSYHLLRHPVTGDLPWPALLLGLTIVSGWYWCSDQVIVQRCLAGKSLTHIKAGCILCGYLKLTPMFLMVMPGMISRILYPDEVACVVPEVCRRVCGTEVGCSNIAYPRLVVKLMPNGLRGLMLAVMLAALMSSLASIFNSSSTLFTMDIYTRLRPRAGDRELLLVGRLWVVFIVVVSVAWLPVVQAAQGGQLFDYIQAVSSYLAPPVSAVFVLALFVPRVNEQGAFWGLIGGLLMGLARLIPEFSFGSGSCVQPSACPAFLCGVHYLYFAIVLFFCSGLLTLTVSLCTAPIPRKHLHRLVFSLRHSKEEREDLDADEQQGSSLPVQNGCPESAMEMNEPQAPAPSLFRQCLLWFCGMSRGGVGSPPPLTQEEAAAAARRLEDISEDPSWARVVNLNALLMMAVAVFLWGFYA
Method: Assay for Inhibitory Effects on Human SGLT2 Activity
1) Cloning and Construction of the Vector Expressing Human SGLT2
(§1) The cDNA library was prepared for PCR amplification by reverse transcription from total RNA deprived from human kidney (Ori gene) using oligo-dT as a primer. Using this cDNA library as a template, the DNA fragment coding 2 to 2039 bp of human SGLT2 (ACCESSION: M95549, M95299), which was reported by R. G. Wells et al., was amplified by PCR method and inserted into the multi-cloning site of pcDNA3.1(−) (Invitrogen). The DNA sequence inserted was perfectly matched to the previously reported sequence.
2) Establishment of Cell Line Stably Expressing Human SGLT2
(§2) The expression vector of human SGLT2 was digested by Sca I into a linear DNA. The linear DNA was transfected into CHO-K1 cells by means of lipofection (Effectene Transfection Reagent: QIAGEN). Neomycin resistant cell lines were selected by culture in the medium containing G418 (1 mg/mL, LIFE TECHNOLOGIES), and then the activity against the uptake of methyl-α-D-glucopyranoside was measured by the method described below. […] CS2-5E cells were cultured in the presence of G418 at 200 μg/mL.
3) Measurement of the Inhibitory Activity Against the Uptake of Methyl-α-D-glucopyranoside (α-MG)
CS2-5E cells were seeded into a 96-well culture plate at a density of 3×10^4 cells/well and cultured for 2 days, and were used in the uptake assay. A mixture of non-labeled (Sigma) and ^14C-labeled α-MG (Amersham Pharmacia Biotech) was added to the uptake buffer (pH 7.4; containing 140 mM sodium chloride, 2 mM potassium chloride, 1 mM calcium chloride, 1 mM magnesium chloride, 10 mM 2-[4-(2-hydroxyethyl)-1-piperazinyl]ethane sulfonic acid and 5 mM tris(hydroxymethyl)aminomethane) at the final concentration of 1 mM. […] Radioactivity was measured by means of micro-scintillation counter TopCount (Packard). One hundred % was set to the difference between the uptake in the control group and the basal uptake, and the uptake of methyl α-D-glucopyranoside at each drug concentration were calculated. […]

human SGLT1 = molecular target: T2, human SGLT1 (Homo sapiens, UniProt P13866); assay: Assay for inhibitory effects on human SGLT1 activity (uptake of methyl-α-D-glucopyranoside); type: cell-based; settings: inhibition of uptake of 14C-labeled methyl-α-D-glucopyranoside (1 mM) in CS1-5-11D cells stably expressing human SGLT1, 37° C., 1 hour
T2 construct: expressed in transfected cells
T2 sequence (P13866 1-664): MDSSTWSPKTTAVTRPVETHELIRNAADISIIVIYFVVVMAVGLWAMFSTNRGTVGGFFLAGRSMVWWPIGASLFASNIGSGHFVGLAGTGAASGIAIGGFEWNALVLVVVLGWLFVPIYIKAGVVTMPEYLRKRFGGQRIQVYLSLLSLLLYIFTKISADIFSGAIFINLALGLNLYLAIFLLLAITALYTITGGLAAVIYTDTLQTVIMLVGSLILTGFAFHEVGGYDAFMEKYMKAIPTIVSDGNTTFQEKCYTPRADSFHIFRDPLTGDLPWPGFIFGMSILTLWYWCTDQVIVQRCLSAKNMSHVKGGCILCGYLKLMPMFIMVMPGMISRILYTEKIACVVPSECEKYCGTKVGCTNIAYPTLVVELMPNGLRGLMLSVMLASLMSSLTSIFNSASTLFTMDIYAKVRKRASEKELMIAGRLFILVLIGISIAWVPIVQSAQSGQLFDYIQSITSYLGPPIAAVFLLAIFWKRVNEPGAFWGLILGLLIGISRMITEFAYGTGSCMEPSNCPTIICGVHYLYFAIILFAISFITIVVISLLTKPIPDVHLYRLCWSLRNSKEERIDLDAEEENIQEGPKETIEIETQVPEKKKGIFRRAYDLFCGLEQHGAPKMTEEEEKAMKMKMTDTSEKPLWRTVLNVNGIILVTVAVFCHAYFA
Method: Assay for Inhibitory Effects on Human SGLT1 Activity
1) Cloning and Construction of the Vector Expressing Human SGLT1
as §1, with “small intestine” for “kidney”, “1” for “2”, “2005” for “2039”, “SGLT1” for “SGLT2”, “M24847),” for “M95549, M95299),”, “Hediger” for “R. G. Wells”
2) Establishment of Cell Line Stably Expressing Human SGLT1
as §2, with “SGLT1” for “SGLT2”, “[…]” for “CHO-K1”, “methyl-αD-glucopyranoside” for “methyl-α-D-glucopyranoside”, “CS1-5-11D” for “CS2-5E”, “μg/mL. […]” for “μg/mL.”
CS1-5-11D cells were seeded into a 96-well culture plate at a density of 3×10^4 cells/well and cultured for 2 days, and were used in the uptake assay. […] Radioactivity was measured by means of micro-scintillation counter TopCount (Packard). […]

Row | SMILES | IC50 (human SGLT2) [nM] | IC50 (human SGLT1) [nM]
1 | OC[C@H]1O[C@@H](Oc2cccc3occ(CCc4ccncc4)c23)[C@H](O)[C@@H](O)[C@@H]1O [Example 43, 4-(β-D-Glucopyranosyloxy)-3-[2-(4-pyridyl)ethyl]benzofuran] | 12 | –
2 | OC[C@H]1O[C@@H](Oc2cc(O)cc3occ(CCc4ccccc4)c23)[C@H](O)[C@@H](O)[C@@H]1O [Example 7, 4-(β-D-Glucopyranosyloxy)-6-hydroxy-3-(2-phenylethyl)benzofuran] | – | 15
3 | Cc1ccccc1CCc1coc2cccc(O[C@@H]3O[C@H](CO)[C@@H](O)[C@H](O)[C@H]3O)c12 [Example 3, 4-(β-D-Glucopyranosyloxy)-3-[2-(2-methylphenyl)ethyl]-benzofuran] | 41 | –
4 | OC[C@H]1O[C@@H](Oc2cccc3occ(CCc4ccc(OCCCNC(CO)(CO)CO)cc4)c23)[C@H](O)[C@@H](O)[C@@H]1O [Example 24, 4-(β-D-Glucopyranosyloxy)-3-[2-(4-{3-[2-hydroxy-1,1-bis(hydroxymethyl)ethylamino]propoxy}phenyl)ethyl]benzofuran] | – | 25
5 | OC[C@H]1O[C@@H](Oc2cccc3occ(CCc4ccccc4)c23)[C@H](O)[C@@H](O)[C@@H]1O [Example 2, 4-(β-D-Glucopyranosyloxy)-3-(2-phenylethyl)benzofuran] | 6 | –
